According to patent publication US20210347728A1, “4,5-DIHYDROXY-2-(4-METHYLBENZYL)ISOPHTHALONITRILE SOLVATES AND CRYSTALLINE FORMS THEREOF” (Orion Corporation, priority 2018, published 2021):

Assay: Stability and conversion of crystalline forms with relative humidity
Type: physicochemical
Settings: humidity range not specified

Question: For `Cc1ccc(Cc2c(C#N)cc(O)c(O)c2C#N)cc1` [Form II monohydrate, 4,5-dihydroxy-2-(4-methylbenzyl)isophthalonitrile monohydrate], which “stability of the crystalline form with humidity” value is on record?
Answer: stable within a reasonable humidity range
